According to article PMC5223195, “Novel long-chain compounds with both immunomodulatory and MenA inhibitory activities against Staphylococcus aureus and its biofilm” (Scientific Reports, 2017):
Values after ≈ are worked out from the molar mass of the structure shown. “Also recorded” adds a separate entry of the source. Like-named read-outs stand apart in the source and are kept apart here.

What was measured:
Mycobacterium abscessus = experiment: MIC against Mycobacterium abscessus; format: cell-based; conditions: Mycobacteroides abscessus, 7H9 broth, 7–8 days
Description: (§1) 96-well plates were seeded with 5 × 10^5 CFU/mL in a volume of 100 μL of tryptic soy broth (TSB) per well for Staphylococcus aureus assays. Compounds were dissolved in DMSO and serially diluted as 1:2 dilutions to give the final concentration ranging from 0.25 to 128 μg/mL per well. […] Plates were incubated at 37 °C for 18–20 hours and MIC was determined by reading OD625. For M.avium and M.abscessus, 7H9 broth media was used for determination of MICs. The final concentration was 5 × 10^5 CFU/mL in each well. The plate was incubated at 37 °C for 7–8 days and MICs were determined using a Tecan microplate reader (OD625) and resazurin reduction assay.

TNF-α = TNF-α release from THP-1 macrophages; format: cell-based, human; conditions: concentration equal to MIC, 24 h, 37 °C
Description: (§2) THP-1 cells were differentiated into macrophages by treatment with PMA (7.5 ng/mL). Levels of the human cytokines (GM-CSF, IFN-γ, IL-1β, IL-2, IL-4, IL-5, IL-6, IL-8, IL-10, TNF-α) released from THP-1 macrophages were determined using a multiplex kit from Life Technologies according to the manufacturer’s instructions. In brief, the 96 well filter plate was pre-wetted, and then 25 μL of the diluted bead suspension was added to each well and washed twice. 100 μL of samples and standards were added to each well. The plate was incubated at room temperature for 2 h on a shaker. Following washing, biotinylated detection antibody was added and incubated for 1 h. After washing, streptavidin-RPE was added to each well and incubated for 0.5 h. The plate was again washed, resuspended in 100 μL of the washing buffer, and read on the Luminex xMAP™ system (Bio-Rad, AtheNA multi-Lyte™, USA). All samples were run in triplicate and standards were run in duplicate.

MRSA USA800 = experiment: MIC against MRSA USA800; format: cell-based, Staphylococcus aureus; conditions: TSB, 37 °C, 18–20 hours; for MIC: Staphylococcus aureus, read-out: MIC, Staphylococcus aureus isolate USA800
Description: as §1

MRSA (USA700) biofilms = experiment: S. aureus biofilm assay; format: cell-based, Staphylococcus aureus; conditions: USA700 biofilm, 24 h
Description: Biofilm assays were performed using a method previously described with modification. A 96 well plate was precoated with 20% human plasma (Sigma) in 0.05 M carbonate buffer, pH 9.6 at 4 °C for 24 h. MRSA was cultured overnight in TSB containing 3% NaCl and 0.5% glucose. The overnight culture was diluted with TSB/NaCl/Glucose media until OD600 reached 0.05. After carefully removing the liquid from the 96 well plate, 200 μL of MRSA dilution was added to each well in triplicate. The plate was incubated at 37 °C for 24 h and carefully washed with PBS twice. MH broth (200 μL) containing a compound was added to each well in triplicate and incubated at 37 °C for 24 h. After washing with PBS twice, the biofilm was scraped in 100 μL of PBS and serially diluted and plated on TSA to determine CFU.

MRSA USA500 = experiment: MIC against MRSA USA500; format: cell-based, Staphylococcus aureus; conditions: TSB, 37 °C, 18–20 hours; for MIC: Staphylococcus aureus, read-out: MIC, Staphylococcus aureus isolate USA500
Description: as §1

MRSA USA400 = experiment: MIC against MRSA USA400; format: cell-based, Staphylococcus aureus; conditions: TSB, 37 °C, 18–20 hours; for MIC: Staphylococcus aureus, read-out: MIC, Staphylococcus aureus isolate USA400
Description: as §1

MRSA (USA200) = experiment: Colony morphology / small colony variant formation on TSA; format: cell-based, Staphylococcus aureus
Description: MRSA was streaked and then incubated on tryptic soy agar (TSA) containing 0, 2, 4, 8 or 16 μg/mL of inhibitor 3a or 4 μg/mL of 7C or 0.025 μg/mL of rifampin at 37 °C for 96 h. MK-4 (100 μg/mL) was supplemented in TSA containing 8 μg/mL of 3a for the rescue experiment.

MRSA strains = experiment: MIC against MRSA strains (summary); format: cell-based, Staphylococcus aureus; conditions: range over MRSA strains
Description: as §1

IL-6 = IL-6 release from THP-1 macrophages; format: cell-based, human; conditions: concentration equal to MIC, 24 h, 37 °C
Description: as §2

MRSA USA700 = experiment: MIC against MRSA USA700; format: cell-based, Staphylococcus aureus; conditions: TSB, 37 °C, 18–20 hours; for MIC: Staphylococcus aureus, read-out: MIC, Staphylococcus aureus isolate USA700
Description: as §1

MRSA USA200 = experiment: MIC against MRSA USA200; format: cell-based, Staphylococcus aureus; conditions: TSB, 37 °C, 18–20 hours; for MIC: Staphylococcus aureus, read-out: MIC, Staphylococcus aureus isolate USA200
Description: as §1

Mycobacterium avium = experiment: MIC against Mycobacterium avium; format: cell-based; conditions: 7H9 broth, 7–8 days
Description: as §1

MRSA USA 700 = experiment: Menaquinone (MK-4) rescue, resazurin reduction assay, USA 700; format: cell-based; conditions: Staphylococcus aureus, read-out: MIC in the presence of MK-4
Description: (§3) Resazurin reduction assay was performed in 96-well plate. MRSA was cultured in TSB until OD625 reached 0.4~0.5 and diluted and plated in 96-well plate. […] The plate was incubated overnight at 37 °C followed by 20 μL of resazurin (0.15 mg/mL) was added to each well. The plate was incubated for 2–4 h and fluorescence was measured at 560 nm excitation/590 nm emission.

MRSA USA100 = experiment: MIC against MRSA USA100; format: cell-based, Staphylococcus aureus; conditions: TSB, 37 °C, 18–20 hours; for MIC: Staphylococcus aureus, read-out: MIC, Staphylococcus aureus isolate USA100
Description: as §1

[1] = system: Methicillin susceptible Staphylococcus aureus; experiment: MIC against MSSA; format: cell-based; conditions: for MIC: MSSA
Description: as §1

IL-1β = IL-1β release from THP-1 macrophages; format: cell-based, human; conditions: concentration equal to MIC, 24 h, 37 °C
Description: as §2

MRSA (USA 700) = experiment: Activity against extracellular MRSA in the presence of human MDMs; format: cell-based, Staphylococcus aureus; conditions: extracellular MRSA USA700, MIC and MIC/4, 24 h
Description: Human monocyte-derived macrophages (MDM) were cultured at a concentration of 1 × 10^6 cells/mL/well in a 24 well plate. MRSA (USA 700) was cultured in TSB (10 mL) until OD625 reached 0.4~0.5 and then centrifuged at 14,000 rpm for 10 min. The pellets were resuspended in 10 mL of DMEM supplemented with 10% human serum (no antibiotics). The bacteria medium was diluted with DMEM containing an inhibitor to obtain 1 × 10^6 CFU/mL and added to human MDMs (MOI = 1) in a 24-well plate. After 24 hour infection at 37 °C, the supernatants were serially diluted for CFU determination (TSA plates).

MRSA USA300 = experiment: MIC against MRSA USA300; format: cell-based, Staphylococcus aureus; conditions: TSB, 37 °C, 18–20 hours; for MIC: Staphylococcus aureus, read-out: MIC, Staphylococcus aureus isolate USA300
Description: as §1

Pseudomonas aeruginosa = experiment: MIC against Pseudomonas aeruginosa; format: cell-based; conditions: for MIC: read-out: MIC, PA
Enterococcus faecalis = experiment: MIC against Enterococcus faecalis; format: cell-based; conditions: for MIC: read-out: MIC, EF
Gram-positive bacteria = experiment: MIC against Gram-positive bacteria (summary); format: cell-based; conditions: range over all tested Gram-positive bacteria
Description: as §1

MRSA USA 200 = experiment: Menaquinone (MK-4) rescue, resazurin reduction assay, USA 200; format: cell-based; conditions: Staphylococcus aureus, read-out: MIC in the presence of MK-4
Description: as §3

Compound | MIC (Mycobacterium abscessus) [µg/mL] | TNF-α released from THP-1 macrophages (TNF-α) | MIC (MRSA USA800) [µg/mL] | MIC (MRSA USA500) [µg/mL] | MIC (MRSA USA400) [µg/mL] | IL-6 released from THP-1 macrophages (IL-6) | MIC (MRSA USA700) [µg/mL] | MIC, Staphylococcus aureus isolate USA700 (MRSA USA700) [µg/mL] | MIC (MRSA USA200) [µg/mL] | MIC (Mycobacterium avium) [µg/mL] | MIC (MRSA USA100) [µg/mL] | MIC [1] [µg/mL] | IL-1β released from THP-1 macrophages (IL-1β) | increase of antibacterial activity compared to activities with MDMs (MRSA (USA 700)) | increase of antibacterial activity compared to activities without MDMs (MRSA (USA 700)) | MIC (MRSA USA300) [µg/mL] | MIC (Pseudomonas aeruginosa) [µg/mL] | MIC (Enterococcus faecalis) [µg/mL] | MIC values against all Gram-positive bacteria (range) (Gram-positive bacteria) [µg/mL] | MIC, Staphylococcus aureus isolate USA200 (MRSA USA200) [µg/mL] | other results
COc1ccc2ccc(OCCCCCCCCNCCc3ccc(F)cc3)cc2c1 [3a] | 6 (≈ 14.2 µM) | decreased | 6 (≈ 14.2 µM) | 4 (≈ 9.44 µM) | 4 (≈ 9.44 µM) | decreased; also recorded: significantly reduced | 4 (≈ 9.44 µM) | 4 (≈ 9.44 µM) | 2 (≈ 4.72 µM) | 2 (≈ 4.72 µM) | 4 (≈ 9.44 µM) | 4 (≈ 9.44 µM) | stimulated the release | 1.5 – 3 fold | 6–12 fold | 4 (≈ 9.44 µM) | > 64 | 1 (≈ 2.36 µM) | 0.5 to 16 | – | fold decrease in MRSA growth from the treated biofilm (MRSA (USA700) biofilms; 0.03 mg/mL): 10^4 fold; fold decrease in MRSA growth from the treated biofilm (MRSA (USA700) biofilms; 0.5 mg/mL): 10^6 fold; fold decrease in MRSA growth from the treated biofilm (MRSA (USA700) biofilms; 1 mg/mL): 10^7 fold; colonies on MK-4 supplemented agar plate (MRSA (USA200); USA200, 8 μg/mL inhibitor + MK-4 100 μg/mL): showed wild-type colonies; colonies on agar plates (MRSA (USA200); USA200, more than 2× MIC, after 24 h): No colonies were observed; induction of small colony variants (SCV) (MRSA (USA200); USA200 on TSA, 37 °C, up to 96 h (3a 4–16 μg/mL), 72 h (7c, rifampin)): did not induce SCV; MICs against MRSA strains (range) (MRSA strains): 1 to 8 µg/mL; MIC (MRSA USA 700; USA 700, 0.05 mg/mL MK-4): 16 µg/mL; MIC (MRSA USA 700; USA 700, 0.5 mg/mL MK-4): 64 µg/mL
COc1ccc2ccc(OCCCCCCCCNCCc3ccc(Br)cc3)cc2c1 [3c] | 12 (≈ 24.8 µM) | – | 6 (≈ 12.4 µM) | 6 (≈ 12.4 µM) | 4 (≈ 8.26 µM) | – | 4 (≈ 8.26 µM) | – | 2 (≈ 4.13 µM) | 4 (≈ 8.26 µM) | 6 (≈ 12.4 µM) | 4 (≈ 8.26 µM) | – | – | – | 4 (≈ 8.26 µM) | > 64 | 1 (≈ 2.06 µM) | 0.5 to 16 | 2 (≈ 4.13 µM) | MIC (MRSA USA 200; USA 200, 0.05 mg/mL MK-4): 16 µg/mL; MIC (MRSA USA 200; USA 200, 0.5 mg/mL MK-4): 64 µg/mL
Brc1cc2ccc(OCCCCCCCCN3CCCCC3)cc2cc1OCc1ccccc1 [6b] | – | decreased | – | – | – | decreased; also recorded: significantly reduced | – | 16 (≈ 30.5 µM) | – | – | – | – | stimulated the release | 1.5 – 3 fold | 6–12 fold | – | – | – | – | 4 (≈ 7.63 µM) | MIC, Staphylococcus aureus isolate USA800 (MRSA USA800): 12 µg/mL (≈ 22.9 µM); MIC, Staphylococcus aureus isolate USA500 (MRSA USA500): 12 µg/mL (≈ 22.9 µM); MIC, Staphylococcus aureus isolate USA400 (MRSA USA400): 6 µg/mL (≈ 11.4 µM); MIC, MA (Mycobacterium avium): 2 µg/mL (≈ 3.81 µM); MIC, Staphylococcus aureus isolate USA100 (MRSA USA100): 6 µg/mL (≈ 11.4 µM); MIC, MSSA [1]: 4 µg/mL (≈ 7.63 µM); MIC, Staphylococcus aureus isolate USA300 (MRSA USA300): 6 µg/mL (≈ 11.4 µM); MIC, PA (Pseudomonas aeruginosa): >128 µg/mL; MIC, EF (Enterococcus faecalis): 2 µg/mL (≈ 3.81 µM)
